Source: patent US7655677B2, “Composition and method for controlling house insect pest” (priority 2002, dated 2010)

Assays:
Format in all cases: in vivo
Lasius japonicus = assay: Test Example 22: cotton ball with compound in 10% cane sugar solution, ant mortality
Description: 10 Ants (Lasius japonicus) were put into a test tube together with a cotton ball impregnated with 0.5 ml of a solution containing a sample compound in a predetermined concentration and containing 10% of cane sugar. […]

Priplaneta americana = assay: Test Example 12: mouse feed poison bait, mortality with time; conditions: bait 1%
Description: 1 g of feeding stuff for mice was treated with 0.5 ml of an acetone solution containing 10 mg of a sample compound and put in a constant temperature chamber at 40° C. for 20 hours to sufficiently evaporate acetone, whereby a poison bait chemical containing 1% of the sample compound was prepared. Then, this poison bait chemical was put into a cup together with a wet cotton, and 10 […] (Priplaneta americana) were released and kept at 25° C. in a breeding room, whereby the mortality was examined as the time passed.

Reticulitermes speratus [1] = assay: Test Example 15: fresh pulp poison bait, termite mortality after 18 days; conditions: fresh pulp bait 0.1%
From the text: Fresh pulp (2 cm×2 cm×0.1 cm) was immersed in a methanol solution of a sample compound. Then, it was dried to obtain a fresh pulp poison bait chemical containing 0.1% of the sample compound. This poison bait chemical was placed in a cylindrical cup made of acrylic resin (i.e. a cup having a hole with a diameter of 10 mm formed in the bottom and having hard plaster (Dental Stone) set at the bottom in a thickness of 10 mm), and 20 termite workers (Reticulitermes speratus) were released thereon. The cup was placed in a container having wet cotton laid over the bottom, and the container was maintained at room temperature of 25° C. for 18 days, whereupon the number of dead termites in the cup was examined, and the mortality was calculated.

Coptotermes formosanus = assay: Test Example 13: Japanese red pine poison bait, termite mortality and abnormal ratio with time
From the text: A wood block of Japanese red pine (2 cm×2 cm×0.5 cm) subjected to boiling treatment in hot water, was immersed in a methanol solution of a sample compound, and then, it was dried to obtain a Japanese red pine poison bait chemical containing the sample compound in a predetermined concentration. This poison bait chemical was put into a cylindrical cup made of acrylic resin (i.e. a cup having a hole with a diameter of 10 mm formed in the bottom and having hard plaster (Dental Stone) set at the bottom in the thickness of 10 mm), and 15 termite workers (Coptotermes formosanus) were released thereon. The cup was placed in a container having wet cotton laid over the bottom, and the container was maintained at room temperature of 25° C., whereby the number of dead termites and abnormal termites in the cup was examined as the time passed, and the mortality was calculated.

Reticulitermes speratus [2] = assay: Test Example 9: treated filter paper in acrylic cup, termite mortality 5 and 20 days later; conditions: 1000 ppm
Description: A filter paper having a diameter of 80 mm was placed in a cylindrical cup made of acrylic resin having a diameter of 80 mm and a height of 60 mm (i.e. a cup having a hole with a diameter of 10 mm formed in the bottom and having hard plaster (Dental Stone) set at the bottom in a thickness of 10 mm), and 1 ml of a solution containing a sample compound in a predetermined concentration, was dropped thereon. Then, ten termite workers and one termite soldier (Reticulitermes speratus) were released thereon. The cup was placed in a container having wet cotton laid over the bottom, and the container was maintained at room temperature of 25° C., and 5 days later and 20 days later, the mortality of termites in the cup was examined.

Reticulitermes speratus [3] = assay: Test Example 10: coated Japanese red pine wood block, termite mortality and weight loss after 24 days; conditions: wood block coated with 0.2% solution
Description: Mean weight loss (%) of the wood block=(W1−W2/W1)×100
A solution containing a sample compound in a predetermined concentration was coated by a paint brush in an amount of 110±10 mg on a rectangular parallelpiped wood block of Japanese red pine (20 mm×10 mm×10 mm). The treated wood block was naturally dried in a dark room of 25° C. for 14 days. Then, the treated wood block and a non-treated wood block were dried at a temperature of 60° C. for 72 hours, and their weights (W1) were measured, and they were used as test specimens. Such a test specimen was put into a cylindrical cup made of acrylic resin (i.e. a cup having a hole with a diameter of 10 mm formed in the bottom and having hard plaster (Dental Stone) set at the bottom in a thickness of 10 mm), and 150 termite workers and 10 termite soldiers (Reticulitermes speratus) were released thereon. The cup was placed in a container having wet cotton laid over the bottom, and the container was maintained at room temperature of 25° C. for 24 days, whereupon the mortality of termites in the cup was examined. Further, the test specimen was taken out from the cup, and the deposited substance was removed from the surface of the test specimen. After drying at a temperature of 60° C. for 72 hours, it was weighed to obtain the weight (W2), whereupon the mean weight loss was calculated.

CC(=NN=C(Cc1ccc(C(F)(F)F)cc1)c1ccc(F)cc1)N(C)C [Compound No. II-2, [4′-fluoro-2-(4-trifluoromethylphenyl)acetophenone]N′-[1-(dimethylamino)ethylidene]hydrazone]
Mortality (Lasius japonicus; 10 ppm, 1 Day later): 0%
Mortality (Lasius japonicus; 10 ppm, 2 Days later): 0%
abnormal ratio (Lasius japonicus; 10 ppm, 2 Days later): 20%
Mortality (Lasius japonicus; 10 ppm, 3 Days later): 40%
Mortality (Lasius japonicus; 10 ppm, 8 Days later): 80%
Mortality (Lasius japonicus; 10 ppm, 11 Days later): 100%
Mortality (Lasius japonicus; 50 ppm, 1 Day later): 30%
abnormal ratio (Lasius japonicus; 50 ppm, 1 Day later): 70%
Mortality (Lasius japonicus; 50 ppm, 2 Days later): 100%
Mortality (Lasius japonicus; 50 ppm, 3 Days later): 100%
Mortality (Lasius japonicus; 50 ppm, 8 Days later): 100%
Mortality (Lasius japonicus; 50 ppm, 11 Days later): 100%
Mortality (Priplaneta americana; 1 Day later): 0%
Mortality (Priplaneta americana; 8 Days later): 0%
Mortality (Priplaneta americana; 48 Days later): 30%
Mortality (Reticulitermes speratus [1]): 100%
Mortality (Coptotermes formosanus; bait 0.005%, 4 Days later): 0%
Mortality (Coptotermes formosanus; bait 0.005%, 8 Days later): 0%
Mortality (Coptotermes formosanus; bait 0.005%, 10 Days later): 0%
Mortality (Coptotermes formosanus; bait 0.005%, 14 Days later): 30%
Mortality (Coptotermes formosanus; bait 0.005%, 17 Days later): 30 (30) %
abnormal ratio (Coptotermes formosanus; bait 0.005%, 17 Days later): 30 (30) %
Mortality (Coptotermes formosanus; bait 0.005%, 23 Days later): 100%
Mortality (Coptotermes formosanus; bait 0.01%, 4 Days later): 0%
Mortality (Coptotermes formosanus; bait 0.01%, 8 Days later): 40%
abnormal ratio (Coptotermes formosanus; bait 0.01%, 8 Days later): 60%
Mortality (Coptotermes formosanus; bait 0.01%, 10 Days later): 55%
abnormal ratio (Coptotermes formosanus; bait 0.01%, 10 Days later): 45%
Mortality (Coptotermes formosanus; bait 0.01%, 14 Days later): 60%
abnormal ratio (Coptotermes formosanus; bait 0.01%, 14 Days later): 40%
Mortality (Coptotermes formosanus; bait 0.01%, 17 Days later): 100%
Mortality (Coptotermes formosanus; bait 0.01%, 23 Days later): 100%
Mortality (Coptotermes formosanus; bait 0.05%, 4 Days later): 47%
Mortality (Coptotermes formosanus; bait 0.05%, 8 Days later): 47%
abnormal ratio (Coptotermes formosanus; bait 0.05%, 8 Days later): 14%
Mortality (Coptotermes formosanus; bait 0.05%, 10 Days later): 80%
abnormal ratio (Coptotermes formosanus; bait 0.05%, 10 Days later): 7%
Mortality (Coptotermes formosanus; bait 0.05%, 14 Days later): 100%
Mortality (Coptotermes formosanus; bait 0.05%, 17 Days later): 100%
Mortality (Coptotermes formosanus; bait 0.05%, 23 Days later): 100%
Mortality (Coptotermes formosanus; bait 0.1%, 4 Days later): 73%
Mortality (Coptotermes formosanus; bait 0.1%, 8 Days later): 100%
Mortality (Coptotermes formosanus; bait 0.1%, 10 Days later): 100%
Mortality (Coptotermes formosanus; bait 0.1%, 14 Days later): 100%
Mortality (Coptotermes formosanus; bait 0.1%, 17 Days later): 100%
Mortality (Coptotermes formosanus; bait 0.1%, 23 Days later): 100%
Mortality (Reticulitermes speratus [2]; 5 Days later): 100%
Mortality (Reticulitermes speratus [2]; 20 Days later): 100%
Mean weight loss (Reticulitermes speratus [3]): 2.9%
Mortality Termite soldiers (Reticulitermes speratus [3]): 100%
Mortality Termite workers (Reticulitermes speratus [3]): 100%
